Assay [1] has as its system Tetranychus urticae. Description: Tetranychus urticae spray test, OP-resistant (bean leaf discs). Type of assay: in vivo. As to conditions: 100 g/ha; after 6 days. The procedure: (§1) After 6 days, the efficacy in % is determined.
A further assay concerns Meloidogyne incognita. Nature of the assay: Meloidogyne incognita test. In kind it is in vivo. Conditions: 20 ppm; after 14 days. Here is the method: • Solvent: 125.0 parts by weight of acetone
To produce a suitable active compound preparation, 1 part by weight of active compound is mixed with the stated amount of solvent and the concentrate is diluted to the desired concentration with water.
Vessels are filled with sand, active compound solution, an egg/larvae suspension of the southern root-knot nematode (Meloidogyne incognita) and lettuce seeds. The lettuce seeds germinate and the plants develop. The galls develop on the roots.
After 14 days, the nematicidal efficacy in % is determined by the formation of galls. 100% means that no galls were found; 0% means that the number of galls on the treated plants corresponds to the untreated control.

The next assay concerns Boophilus microplus. Description: Boophilus microplus injection test. In kind it is in vivo. As to conditions: 20 μg/animal; assessed after 7 days. The procedure:
(§2) • Solvent: dimethyl sulfoxide
1 μl of the active ingredient solution is injected into the abdomen of 5 engorged adult female cattle ticks (Boophilus microplus). The animals are transferred into dishes and kept in a climate-controlled room.

A further assay deals with Musca domestica. Description: Musca domestica test. Type of assay: in vivo. Conditions: 100 ppm; adult houseflies; after 2 days. Here is the method: as §2
To produce a suitable active ingredient formulation, 10 mg of active ingredient are mixed with 0.5 ml of dimethyl sulfoxide, and the concentrate is diluted with water to the desired concentration.
Vessels containing a sponge treated with sugar solution and the active ingredient formulation of the desired concentration are populated with 10 adult houseflies (Musca domestica).

The test system of a further assay is Myzus persicae. Description: Myzus persicae spray test (Chinese cabbage leaf discs). In kind it is in vivo. As to conditions: 100 g/ha; after 6 days. The procedure:
as §1

For assay [2], the system named is Ctenocephalides felis. Description: Ctenocephalides felis oral test. Type of assay: in vivo. Conditions: 100 ppm in citrated cattle blood; after 2 days.
The subject of the next assay is Rhipicephalus sanguineus. Nature of the assay: Rhipicephalus sanguineus in vitro contact test with adult brown dog ticks. In kind it is in vivo. Conditions: application rate 5 μg/cm^2 (=500 g/ha); after 48 h; dead or moribund ticks. The procedure, abridged:
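Efficacy, as % of ticks dead or moribund, was judged 48 h after placing 5-10 adult brown dog ticks in acetone-coated tubes (5 μg/cm^2 from 900 ppm) kept dark at room temperature. Ticks unable to climb away from a 45-50° C hotplate within 5 min counted as affected.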

A further assay relates to Spodoptera frugiperda. Nature of the assay: Spodoptera frugiperda spray test. In kind it is in vivo. As to conditions: 100 g/ha; after 7 days.
In assay [3] the test system is Ctenocephalides felis. Nature of the assay: Ctenocephalides felis in vitro contact test with adult cat fleas. In kind it is in vivo. As to conditions: application rate 5 μg/cm^2 (=500 g/ha); after 48 h; dead or moribund fleas. The procedure, abridged: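 After 48 h at room temperature and ambient humidity, adult cat fleas (5–10 per tube) were scored, with motionless or uncoordinated fleas counted dead or moribund. Tubes had been coated with acetone solutions of compound, the 900 ppm solution giving 5 μg/cm². Efficacy: 100% means all fleas dead or moribund, 0% none harmed.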

Assay [4] concerns cattle ticks (Boophilus microplus) Parkhurst strain, SP-resistant. Description: Boophilus microplus dip test. In kind it is in vivo. As to conditions: 100 ppm; assessed after 7 days. The procedure:
• Test animals: cattle ticks (Boophilus microplus) Parkhurst strain, SP-resistant • Solvent: dimethyl sulfoxide
10 mg of active ingredient are dissolved in 0.5 ml of dimethyl sulfoxide. To produce a suitable formulation, the active ingredient solution is diluted with water to the concentration desired in each case.
This active ingredient formulation is pipetted into tubes. 8-10 engorged adult female cattle ticks (Boophilus microplus) are transferred into a further tube with holes. The tube is immersed into the active ingredient formulation, and all the ticks are completely wetted. After the liquid has run out, the ticks are transferred on filter discs into plastic dishes and stored in a climate-controlled room.
Efficacy is assessed after 7 days by laying of fertile eggs. Eggs which are not visibly fertile are stored in a climate-controlled cabinet until the larvae hatch after about 42 days. An efficacy of 100% means that none of the ticks has laid any fertile eggs; 0% means that all the eggs are fertile.

The next assay relates to Phaedon cochleariae. Nature of the assay: Phaedon cochleariae spray test. Conditions: 100 g/ha; after 7 days.
Assay [5] relates to Tetranychus urticae. Description: Tetranychus urticae spray test, OP-resistant (bean plants). In kind it is in vivo. Conditions: 4 ppm; after 7 days. Here is the method: To produce further test concentrations, the latter is diluted with emulsifier-containing water. When addition of ammonium salts and/or penetrants is required, these are each added at a concentration of 1000 ppm to the preparation solution.
Bean plants (Phaseolus vulgaris), which are heavily infested by all stages of the greenhouse red spider mite (Tetranychus urticae), are treated by being sprayed with the active compound preparation at the desired concentration.

On to `CC(=O)NCc1cc(-c2cnn(-c3c(Cl)cc(C(F)(C(F)(F)F)C(F)(F)F)cc3Cl)c2)ccc1F` [Ia-15], for which the efficacy is 100% in the assay with Tetranychus urticae [1]; 90% with Myzus persicae; 100% with Rhipicephalus sanguineus; 100% with Spodoptera frugiperda; 100% in the assay with Ctenocephalides felis [3]; 100% with Phaedon cochleariae. In addition, the “nematicidal efficacy (formation of galls)” value with Meloidogyne incognita stood at 90%. Besides, the entries for the “efficacy (laying of fertile eggs)” value (in the assay with Boophilus microplus; in assay [4]) were 100% and 90%, respectively. Further, the “efficacy (rate of extermination)” value in the assay with Musca domestica and in the assay with Ctenocephalides felis [2] was 100% throughout.
With `CC(=O)NCc1cc(-c2cnn(-c3c(Cl)cc(C(F)(C(F)(F)F)C(F)(F)F)cc3OC(F)(F)F)c2)ccc1Cl` [Ia-57], in the assay with Boophilus microplus, the “efficacy (laying of fertile eggs)” value is listed as 100%. Besides, the “efficacy (rate of extermination)” value in the assay with Musca domestica and in the assay with Ctenocephalides felis [2] was 100% in each case. The efficacy is 99% with Tetranychus urticae [5], 80% with Rhipicephalus sanguineus, 100% in the assay on Spodoptera frugiperda and 100% with Phaedon cochleariae.
`CC(=O)NCc1cc(-c2cnn(-c3c(Cl)cc(C(F)(C(F)(F)F)C(F)(F)F)cc3C(F)(F)F)c2)ccc1Cl` [Ia-55]: in the assay on Boophilus microplus, the “efficacy (laying of fertile eggs)” value worked out at 100%. Further, the “efficacy (rate of extermination)” value with Musca domestica and with Ctenocephalides felis [2] was 100% in each case. Besides, the efficacy in the assay with Tetranychus urticae [5] was 99%; in the assay with Rhipicephalus sanguineus, 100%; in the assay with Spodoptera frugiperda, 100%; in the assay on Ctenocephalides felis [3] it was 70%; in the assay on Phaedon cochleariae, 100%.
Consider `O=C(NCc1cc(-c2cn(-c3c(Cl)cc(C(F)(C(F)(F)F)C(F)(F)F)cc3Cl)cn2)ccc1F)C1CC1` [I-T2-04], for which the “efficacy (laying of fertile eggs)” value (with Boophilus microplus; in assay [4]) was 100% in each case. Also, the “efficacy (rate of extermination)” value with Ctenocephalides felis [2] is 100%. For the same molecule, the efficacy with Tetranychus urticae [5] was determined as 100%; with Spodoptera frugiperda, 83%; in the assay on Ctenocephalides felis [3] it was 100%; in the assay with Phaedon cochleariae, 100%.
Take `CCC(=O)NCc1cc(-c2cnn(-c3c(Cl)cc(C(F)(C(F)(F)F)C(F)(F)F)cc3OC(F)F)c2)ccc1Cl` [Ia-51]: the “efficacy (laying of fertile eggs)” value (in the assay with Boophilus microplus; in [4]) was 100% each time. For the same molecule, the “efficacy (rate of extermination)” value with Musca domestica and in the assay with Ctenocephalides felis [2] was 100% throughout. Moreover, the efficacy was 99% with Tetranychus urticae [5]; 100% in the assay with Rhipicephalus sanguineus; 100% in the assay with Spodoptera frugiperda; 100% with Ctenocephalides felis [3]; 100% with Phaedon cochleariae.
Consider `CC(=O)NCc1cc(-c2cnn(-c3c(Cl)cc(C(F)(C(F)(F)F)C(F)(F)F)cc3OC(F)F)c2)ccc1Cl` [Ia-53], for which the “efficacy (laying of fertile eggs)” value (in the assay with Boophilus microplus; in assay [4]) was 100% each time. Moreover, the “efficacy (rate of extermination)” value in the assay on Musca domestica and in the assay on Ctenocephalides felis [2] was 100% throughout. Moreover, the efficacy with Tetranychus urticae [5] turned out to be 99%; in the assay on Rhipicephalus sanguineus, 100%; with Spodoptera frugiperda it was 100%; in the assay on Ctenocephalides felis [3] it was 90%; with Phaedon cochleariae, 100%.

The values above are taken from US10357036B2, “Compounds for controlling arthropods” (priority 2015, dated 2019).
